pIC50: −log10 of the molar value.
Target: T1, Gamma secretase (Homo sapiens, UniProt P49768)
T1 construct: endogenous in cells; host or cells: Salt-washed membranes of 293 T-REx cells, clone pTRE.15; Only the substrate SPC99-Lon is transfected (pcDNA4/TO, tetracycline-induced)
Test: Gamma secretase activity assay on membranes of 293 cells expressing SPC99-Lon (Aβ 40 / Aβ 42 measured by ECL immunoassay)
Type: biochemical
Conditions: membrane γ-secretase assay, 37 C, 1 h; read-out: IC50 (μM), γ-secretase inhibitory activity
Procedure: Upon insertion into the membrane, the 17 amino acid signal peptide is processed, leaving an additional leucine at the N-terminus of Aβ. SPC99-lon was cloned into the pcDNA4/TO vector (Invitrogen) and transfected into 293 cells stably transfected with pcDNA6/TR, which is provided in the T-REx system (Invitrogen). The transfected cells were selected in Dulbecco's modified Eagle's media (DMEM) supplemented with 10% fetal bovine serum, 100 units/mL penicillin, 100 µg/mL streptomycin, 250 µg/mL zeocin, and 5 µg/mL blasticidin (Invitrogen). Colonies were screened for Aδ production by inducing C99 expression with 0.1 g/mL tetracycline for 16–20 h and analyzing conditioned media with a sandwich immunoassay (see below). One of the clones, designated as pTRE.15, was used in these studies.
C99 expression in cells was induced with […] tetracycline for 20 h. The cells were pretreated with […] 12-myristate 13-acetate (PMA) and […] A (BFA) for 5–6 h at 37 C before harvesting. The cells were washed 3 times with cold phosphate-buffered saline (PBS) and harvested in buffer A containing 20 mM Hepes (pH 7.5), 250 mM sucrose, 50 mM KCl, 2 mM EDTA, 2 mM EGTA, and Complete protease inhibitor tablets (Roche Molecular Biochemicals). The cell pellets were flash-frozen in liquid nitrogen and stored at −70 C before use.
To make membranes, the cells were resuspended in buffer A and lysed in a nitrogen bomb at 600 psi. The cell lysate was centrifuged at 1500 g for 10 min to remove nuclei and large cell debris. The supernatant was centrifuged at 100000 g for 1 h. The membrane pellet was resuspended in buffer A plus 0.5 M NaCl, and the membranes were collected by centrifugation at 200000 g for 1 h. The salt-washed membrane pellet was washed again in buffer A and centrifuged at 100000 g for 1 h. The final membrane pellet was resuspended in a small volume of buffer A using a Teflon-glass homogenizer. The protein concentration was determined, and membrane aliquots were flash-frozen in liquid nitrogen and stored at −70 C. γ-Secretase Reaction and Aβ Analysis
To measure γ-secretase activity, membranes were incubated at 37 C for 1 h in 50 L of buffer containing 20 mM Hepes (pH 7.0) and 2 mM EDTA. At the end of the incubation, Aβ 40 and Aβ 42 were measured using an electrochemiluminescence (ECL)-based immunoassay. Aβ 40 was identified with antibody pairs TAG-G2–10 and biotin-W02, while Aβ 42 was identified with TAG-G2–11 and biotin-4G8. The ECL signal was measured using an ECL-M8 instrument (IGEN International, Inc.) according to the manufacturer's instructions. The data presented were the means of the duplicate or triplicate measurements in each experiment.

For O=C(OC[C@H]1CCC[C@@H](c2cccc(F)c2)N1S(=O)(=O)c1ccc(Cl)cc1)N1CCC(N2CCCCC2)CC1 [Example 67-B], which IC50 is on record?
The IC50 was 0.0027 µM.

How did the IC50 turn out when O=C(OC[C@H]1CCC[C@@H](c2cc(F)cc(F)c2)N1S(=O)(=O)c1ccc(Cl)cc1)N1CCC(N2CCCCC2)CC1 [Example 67-AT] was run?
Its IC50 is 0.0038 µM.

Which IC50 does the source give for O=C(OC1([C@H]2CCC[C@@H](c3cc(F)cc(F)c3)N2S(=O)(=O)c2ccc(Cl)cc2)CC1)N1CCC(N2CCCCC2)CC1 [Example 173] here?
The IC50 was 0.0002 µM.

With O=C(OC1([C@H]2CCC[C@@H](C3CC3)N2S(=O)(=O)c2ccc(Cl)cc2)CC1)N1CCC(N2CCCCC2)CC1 [Example 161-A] as the molecule, how does the IC50 read?
Its IC50 is 0.0028 µM.

Which IC50 does the source give for O=C(OC1(C2CCCC(c3cccc(F)c3)N2S(=O)(=O)c2ccc(Cl)cc2)CC1)N1CCN(CCO)CC1 (centres unmarked) [Example 173-C] here?
Its IC50 is 0.0018 µM.

For O=C(OC[C@H]1CCC[C@@H](c2cc(F)cc(F)c2)N1S(=O)(=O)c1ccc(Cl)cc1)N1CCC(N2CCCCC2)CC1 [Example 67-BG], which IC50 is on record?
Its IC50 is 0.0023 µM.

NC(=O)C1(N2CCCCC2)CCN(C(=O)OC2(C3CCCC(c4cccc(F)c4)N3S(=O)(=O)c3ccc(Cl)cc3)CC2)CC1 (centres unmarked) [Example 173-E] was tested. Which IC50 did it give?
The IC50 was 0.0027 µM.

How did the IC50 turn out when O=C(OC1(C2CCCC(c3cccc(F)c3)N2S(=O)(=O)c2ccc(Cl)cc2)CC1)N1CCC(N2CCCCC2)CC1 (centres unmarked) [Example 173-A] was run?
Its IC50 is 0.0007 µM.

How did the IC50 turn out when NC(=O)C1(N2CCCCC2)CCN(C(=O)OC2([C@H]3CCC[C@@H](c4cc(F)cc(F)c4)N3S(=O)(=O)c3ccc(Cl)cc3)CC2)CC1 [Example 173-J] was run?
Its IC50 is 0.0008 µM.

Same assay, conditions: membrane γ-secretase assay; range stated for a group of examples; read-out: IC50 within the range stated, gamma secretase assay

How did the pIC50 turn out when Cc1cc([C@@H]2CCC[C@H](COC(=O)N3CCC(N4CCCCC4)CC3)N2S(=O)(=O)c2ccc(Cl)cc2)ccc1F [Example 67-BE] was run?
The pIC50 was 7.82 to 9.70.

How did the pIC50 turn out when O=C(OC[C@H]1CCC[C@@H](c2ccccc2F)N1S(=O)(=O)c1ccc(Cl)cc1)N1CCC(N2CCCCC2)CC1 [Example 67-E] was run?
Its pIC50 is 7.82 to 9.70.

With CC(C)N1CCN(C(=O)OC2([C@H]3CCC[C@@H](C4CC4)N3S(=O)(=O)c3ccc(Cl)cc3)CC2)CC1 [Example 161-E] as the molecule, how does the pIC50 read?
The pIC50 was 7.82 to 9.70.

How did the pIC50 turn out when NC(=O)C1(N2CCCCC2)CCN(C(=O)OC[C@H]2CCC[C@@H](c3cc(F)cc(F)c3)N2S(=O)(=O)c2ccc(Cl)cc2)CC1 [Example 67-BH] was run?
The pIC50 was 7.82 to 9.70.

How did the pIC50 turn out when O=C(OC1([C@H]2CCC[C@@H](C3CC3)N2S(=O)(=O)c2ccc(Cl)cc2)CC1)N1CCN(CC2CC2)CC1 [Example 161-F] was run?
Its pIC50 is 7.82 to 9.70.

How did the pIC50 turn out when O=C(OC1(C2CCCC(c3cccc(F)c3)N2S(=O)(=O)c2ccc(Cl)cc2)CC1)N1CCN(C2CCCCC2)CC1 (centres unmarked) [Example 173-B] was run?
Its pIC50 is 7.82 to 9.70.

How did the pIC50 turn out when O=C(OC1(C2CCCC(c3cccc(F)c3)N2S(=O)(=O)c2ccc(Cl)cc2)CC1)N1CCC2(CC1)NCNC2=O (centres unmarked) [Example 173-G] was run?
Its pIC50 is 7.82 to 9.70.

How did the pIC50 turn out when O=C(OC[C@H]1CCC[C@@H](c2cccc(F)c2)N1S(=O)(=O)c1ccc(F)cc1)N1CCC(N2CCCCC2)CC1 [Example 67-U] was run?
The pIC50 was 7.82 to 9.70.

O=C(OC[C@H]1CCC[C@@H](c2cccc(F)c2)N1S(=O)(=O)c1ccc(Cl)cc1)N1CCC(N2CCCCC2)CC1 [Example 67-B] was tested. Which pIC50 did it give?
The pIC50 was 7.82 to 9.70.

With CC1CC(N2CCCCC2)CCN1C(=O)OC[C@@H]1CCC[C@H](C2CC2)N1S(=O)(=O)c1ccc(Cl)cc1 (some centres unmarked) [Example 160-K] as the molecule, how does the pIC50 read?
Its pIC50 is 7.82 to 9.70.

How did the pIC50 turn out when C=C1CCN(C2CCN(C(=O)OC[C@H]3CCC[C@@H](c4cccc(F)c4)N3S(=O)(=O)c3ccc(Cl)cc3)CC2)CC1 [Example 67-P] was run?
Its pIC50 is 7.82 to 9.70.

How did the pIC50 turn out when O=C(OC1([C@H]2CCC[C@@H](c3cc(F)cc(F)c3)N2S(=O)(=O)c2ccc(Cl)cc2)CC1)N1CCC(N2CCCCC2)CC1 [Example 173] was run?
Its pIC50 is 7.82 to 9.70.

With O=C(OC[C@H]1CCC[C@@H](c2ccc(F)c(F)c2)N1S(=O)(=O)c1ccc(Cl)cc1)N1CCC(N2CCCCC2)CC1 [Example 67-BD] as the molecule, how does the pIC50 read?
The pIC50 was 7.82 to 9.70.

With CC1(N2CCCCC2)CCN(C(=O)OC[C@H]2CCC[C@@H](c3cccc(F)c3)N2S(=O)(=O)c2ccc(Cl)cc2)CC1 [Example 67-BA] as the molecule, how does the pIC50 read?
The pIC50 was 7.82 to 9.70.

With O=C(OC1([C@H]2CCC[C@@H](C3CC3)N2S(=O)(=O)c2ccc(Cl)cc2)CC1)N1CCC(N2CCCCC2)CC1 [Example 161-A] as the molecule, how does the pIC50 read?
The pIC50 was 7.82 to 9.70.

How did the pIC50 turn out when O=C(OC1(C2CCCC(c3cccc(F)c3)N2S(=O)(=O)c2ccc(Cl)cc2)CC1)N1CCN(CCO)CC1 (centres unmarked) [Example 173-C] was run?
The pIC50 was 7.82 to 9.70.

How did the pIC50 turn out when O=C(OC[C@H]1CCC[C@@H](c2cc(F)cc(F)c2)N1S(=O)(=O)c1ccc(Cl)cc1)N1CCC(N2CCCCC2)CC1 [Example 67-BG] was run?
The pIC50 was 7.82 to 9.70.

How did the pIC50 turn out when O=C(OC1([C@H]2CCC[C@@H](c3cc(F)cc(F)c3)N2S(=O)(=O)c2ccc(Cl)cc2)CC1)N1CCN(C2CCCCC2)CC1 [Example 173-K] was run?
Its pIC50 is 7.82 to 9.70.

NC(=O)C1(N2CCCCC2)CCN(C(=O)OC2(C3CCCC(c4cccc(F)c4)N3S(=O)(=O)c3ccc(Cl)cc3)CC2)CC1 (centres unmarked) [Example 173-E] was tested. Which pIC50 did it give?
Its pIC50 is 7.82 to 9.70.

How did the pIC50 turn out when O=C(OC1([C@H]2CCC[C@@H](c3ccc(F)cc3F)N2S(=O)(=O)c2ccc(Cl)cc2)CC1)N1CCC(N2CCCCC2)CC1 [Example 173-I] was run?
The pIC50 was 7.82 to 9.70.

With O=C(OC[C@H]1CCC[C@@H](c2cc(F)ccc2F)N1S(=O)(=O)c1ccc(Cl)cc1)N1CCC(N2CCCCC2)CC1 [Example 67-BL] as the molecule, how does the pIC50 read?
Its pIC50 is 7.82 to 9.70.

How did the pIC50 turn out when O=C(OC[C@H]1CCC[C@@H](c2cccc(F)c2)N1S(=O)(=O)c1ccc(Cl)cc1)N1CCC(N2CCC(F)(F)CC2)CC1 [Example 67-N] was run?
The pIC50 was 7.82 to 9.70.

How did the pIC50 turn out when O=C(OC1(C2CCCC(c3cccc(F)c3)N2S(=O)(=O)c2ccc(Cl)cc2)CC1)N1CCC(N2CCCCC2)CC1 (centres unmarked) [Example 173-A] was run?
Its pIC50 is 7.82 to 9.70.

How did the pIC50 turn out when NC(=O)C1(N2CCCCC2)CCN(C(=O)OC2([C@H]3CCC[C@@H](c4cc(F)cc(F)c4)N3S(=O)(=O)c3ccc(Cl)cc3)CC2)CC1 [Example 173-J] was run?
The pIC50 was 7.82 to 9.70.

O=C(OC[C@@H]1CCC[C@H](C2CC2)N1S(=O)(=O)c1ccc(Cl)cc1)N1CCN(C2CCCCC2)CC1 [Example 160-B] was tested. Which pIC50 did it give?
The pIC50 was 7.82 to 9.70.

With O=C(OC1([C@H]2CCC[C@@H](c3cc(F)cc(F)c3)N2S(=O)(=O)c2ccc(Cl)cc2)CC1)N1CCC2(CC1)C(=O)NCN2c1ccccc1 [Example 173-L] as the molecule, how does the pIC50 read?
Its pIC50 is 7.82 to 9.70.

Source: patent publication US7256186B2, “Gamma secretase inhibitors” (Schering Corporation, priority 2002, dated 2007)
